Data on nine molecules can be found in patent publication US8809498B2, “Pepstatin A derivatives” (priority 2008, dated 2014).

Common to all, as to assay type: biochemical
One assay has as its target Sap3 of Candida albicans (Candida albicans, UniProt P0CY29). In words: Inhibition of proteolytic activity of Sap3 (resorufin-marked casein, fluorescence). The procedure:
(§1) For this purpose, that inhibitor concentration was determined in vitro at which the proteolytic activity of the enzyme or its velocity of metabolizing a substrate, respectively, was reduced for 50%.
(§2) The proteolytic activity of the tested Saps was determined at the pH optimum of those Saps. Resorufin-marked casein was used as substrate. Proteolysis of casein can be detected by an increase in fluorescence due to released resorufin (a fluorescence marker) by proteolysis.
(§3) Sap1, Sap3 and Sap6 of Candida albicans were independently dissolved in 2-(N-morpholino)ethanesulfonic acid (MES) having a concentration of 10 mmol/l and a pH of 6.5 resulting in enzyme solutions having a Sap concentration of 100 mmol/l. After one hour incubation at room temperature, 80 μl of a substrate solution comprising resorufin-marked casein in a sodium citrate buffer having a concentration of 500 mmol/l and a pH of 3.5 (in case of Sap3), 4.5 (in case of Sap1) and 5.0 (in case of Sap6) were added to 20 μl of enzyme solution. The resulting Sap concentration was 5 nmol/l. The resulting casein concentration was chosen such that the Saps could work in excess of substrate. Different Sap inhibitors were added, resulting in a final inhibitor concentration of 1 nmol/1, 2 nmol/1, 5 nmol/1, 10 nmol/l, nmol/l or 50 nmol/l in each case. One enzyme-substrate sample was left without addition of inhibitor. All experiments were performed in triplicate.
(§4) The mixture of enzyme and substrate or of enzyme, substrate and inhibitor was incubated at 37° C. under agitation at 300 rpm (rounds per minute) for 60 min in each case. Afterwards, 20 μl of a trichloroacetic acid solution (30%, w/v) were added. The mixture was placed on ice for 5 minutes and centrifuged afterwards for 3 min at 6000 rpm. The supernatant was removed.
(§5) To carry out fluorescence measurements, 100 μl of the supernatant were mixed with 100 μl Tris-HCl (trishydroxymethylaminomethane-HCl) having a concentration of 1 mol/l and a pH of 10.0. The fluorescence of this mixture was measured directly after adding Tris-HCl using an excitation wavelength of 530 nm and an emission wavelength of 590 nm on a CytoFluor 2350 apparatus (Millipore, Bedford, Mass., USA), wherein sensitivity was set to 2 and bandwidth was set to 7.
(§6) The average of three independent fluorescence measurements was calculated. The fluorescence of enzyme without inhibitor (i.e. inhibitor concentration of 0 nmol/l) was set to 100% enzyme activity. The activity of inhibited enzyme was calculated accordingly from the fluorescence of inhibited enzyme with respect to fluorescence of enzyme without inhibitor. Finally, the enzyme activity was plotted against the inhibitor concentration and the IC50 value was determined.

The target in another assay is Sap1 of Candida albicans (Candida albicans, UniProt P0CY27). In words: Inhibition of proteolytic activity of Sap1 (resorufin-marked casein, fluorescence). The procedure:
as §1, §2, §3, §4, §5, §6

The target of the next assay is Sap6 of Candida albicans (Candida albicans, UniProt Q5AC08). Briefly: Inhibition of proteolytic activity of Sap6 (resorufin-marked casein, fluorescence). The procedure:
as §1, §2, §3, §4, §5, §6

The next assay has as its target Sap5 (Candida albicans, UniProt P43094). In words: Inhibition of proteolytic activity of Sap5. The procedure:
as §1, §2, §4, §5, §6

A further assay deals with Saps of Candida albicans. In words: Overall Sap inhibition (summary of table 1). The settings on record: table 1 summary. The procedure:
as §1, §2
as §3, with “Different Sap inhibitors were added, resulting in a final inhibitor concentration of 1 nmol/1, 2 nmol/1, 5 nmol/1, 10 nmol/l, nmol/l or 50 nmol/l in each case. One enzyme-substrate sample was left without addition of inhibitor. All experiments were performed in triplicate.” left out
as §5, §6

The IC50 is the midpoint of a concentration-inhibition curve.

Non-standard residues stand in square brackets, D forms with d. Residues, ends and D or L forms follow the SMILES beside them. *: point of attachment. Phe(3-F) = N[C@@H](Cc1cccc(F)c1)C(=O)O; Phe(2-F) = N[C@@H](Cc1ccccc1F)C(=O)O; Sta = CC(C)C[C@H](N)[C@@H](O)CC(=O)O; Isovaleryl = CC(C)CC(=O)*; Nle = CCCC[C@H](N)C(=O)O

Sequence of Sap3 of Candida albicans (P0CY29 59-398): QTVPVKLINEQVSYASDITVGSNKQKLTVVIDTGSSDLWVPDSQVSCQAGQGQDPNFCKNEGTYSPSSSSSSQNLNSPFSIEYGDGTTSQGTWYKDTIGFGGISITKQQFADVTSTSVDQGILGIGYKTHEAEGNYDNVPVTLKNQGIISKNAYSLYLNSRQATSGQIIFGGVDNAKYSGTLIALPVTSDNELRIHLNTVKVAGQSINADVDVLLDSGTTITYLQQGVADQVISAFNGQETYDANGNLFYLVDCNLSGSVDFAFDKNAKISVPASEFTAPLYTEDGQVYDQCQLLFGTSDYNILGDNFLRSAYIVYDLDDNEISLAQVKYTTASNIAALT
Sequence of Sap1 of Candida albicans (P0CY27 51-391): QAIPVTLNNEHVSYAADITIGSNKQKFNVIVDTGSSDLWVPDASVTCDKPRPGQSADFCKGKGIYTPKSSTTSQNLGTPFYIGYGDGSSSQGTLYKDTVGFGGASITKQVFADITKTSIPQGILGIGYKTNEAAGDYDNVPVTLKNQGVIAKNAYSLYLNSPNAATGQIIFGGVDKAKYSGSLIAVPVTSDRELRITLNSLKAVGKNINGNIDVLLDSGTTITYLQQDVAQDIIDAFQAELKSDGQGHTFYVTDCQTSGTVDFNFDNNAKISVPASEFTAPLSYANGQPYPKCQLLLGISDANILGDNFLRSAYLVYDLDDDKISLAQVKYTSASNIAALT
Sequence of Sap5 (P43094 77-418): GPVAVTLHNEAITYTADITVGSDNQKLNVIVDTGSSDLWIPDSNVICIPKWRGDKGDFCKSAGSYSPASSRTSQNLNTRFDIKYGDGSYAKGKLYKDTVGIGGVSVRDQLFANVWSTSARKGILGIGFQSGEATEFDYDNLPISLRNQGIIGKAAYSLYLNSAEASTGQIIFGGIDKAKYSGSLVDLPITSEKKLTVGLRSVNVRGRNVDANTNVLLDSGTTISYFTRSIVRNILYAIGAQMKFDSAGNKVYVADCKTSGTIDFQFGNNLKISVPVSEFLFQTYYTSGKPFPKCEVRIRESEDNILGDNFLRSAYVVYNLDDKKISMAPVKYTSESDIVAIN
Sequence of Sap6 of Candida albicans (Q5AC08 77-418): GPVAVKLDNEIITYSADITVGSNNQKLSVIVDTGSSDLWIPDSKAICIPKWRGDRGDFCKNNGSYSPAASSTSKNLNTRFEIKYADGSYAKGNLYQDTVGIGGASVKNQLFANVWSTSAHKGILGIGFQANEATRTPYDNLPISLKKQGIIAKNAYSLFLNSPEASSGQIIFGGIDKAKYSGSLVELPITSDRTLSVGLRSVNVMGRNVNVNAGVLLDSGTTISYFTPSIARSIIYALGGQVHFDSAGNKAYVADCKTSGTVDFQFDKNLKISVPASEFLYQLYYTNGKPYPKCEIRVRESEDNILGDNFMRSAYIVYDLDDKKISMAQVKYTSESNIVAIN

For the molecule `CC(C)CC(=O)N[C@@H](Cc1ccccc1F)C(=O)N[C@H](C(=O)N[C@@H](CC(C)C)[C@@H](O)CC(=O)N[C@@H](C)C(=O)N[C@@H](CC(C)C)[C@@H](O)CC(=O)O)C(C)C` [P3(o-FPhe)-pepstatin, (N-Iva-oFPhe)-Val-Sta-Ala-Sta] (Isovaleryl-[Phe(2-F)]V[Sta]A[Sta]-OH), the IC50 on Sap3 of Candida albicans is ~20 nM; against Sap1 of Candida albicans, ~20 nM; at Sap6 of Candida albicans, ~100 nM; on Sap5, ~50 nM.
With `CC(C)c1nc(CN(C)C(=O)N[C@H](C(=O)N[C@@H](Cc2ccccc2)C[C@H](O)[C@H](Cc2ccccc2)NC(=O)OCc2cncs2)C(C)C)cs1` [Ritonavir], in the assay with Saps of Candida albicans, the “IC50 values, range” value is on record as “in the range of micromole per litre”.
In the case of `CC(C)CC(=O)N[C@H](C(=O)N[C@H](C(=O)N[C@@H](CC(C)C)[C@@H](O)CC(=O)N[C@@H](C)C(=O)N[C@@H](CC(C)C)[C@@H](O)CC(=O)O)C(C)C)C(C)C` [Pepstatin A] (Isovaleryl-VV[Sta]A[Sta]-OH), the concentration for half-maximal inhibition (IC50) is ~1 nM at Sap3 of Candida albicans, ~7 nM against Sap1 of Candida albicans, ~7 nM against Sap6 of Candida albicans and 5 nM against Sap5.
`CC(C)CC(=O)N[C@H](C(=O)N[C@@H](CCCCN)C(=O)N[C@@H](CC(C)C)[C@@H](O)CC(=O)N[C@@H](C)C(=O)N[C@@H](CC(C)C)[C@@H](O)CC(=O)O)C(C)C` [P2(Lys)-pepstatin, (N-Iva-Val)-Lys-Sta-Ala-Sta] (Isovaleryl-VK[Sta]A[Sta]-OH): the IC50 on Sap3 of Candida albicans is ~100 nM; against Sap1 of Candida albicans, > 500 nM; at Sap6 of Candida albicans it was 50 nM; against Sap5, ~20 nM.
Take `CC(C)CC(=O)N[C@@H](Cc1cccc(F)c1)C(=O)N[C@H](C(=O)N[C@@H](CC(C)C)[C@@H](O)CC(=O)N[C@@H](C)C(=O)N[C@@H](CC(C)C)[C@@H](O)CC(=O)O)C(C)C` [P3(m-FPhe)-pepstatin, (N-Iva-mFPhe)-Val-Sta-Ala-Sta] (Isovaleryl-[Phe(3-F)]V[Sta]A[Sta]-OH): the 50% inhibitory concentration (IC50) on Sap3 of Candida albicans is ~10 nM; at Sap1 of Candida albicans it was 10 nM; against Sap6 of Candida albicans, 10 nM; at Sap5, ~10 nM.
For the molecule `CCCC[C@H](NC(=O)[C@H](Cc1ccccc1)NC(=O)CC(C)C)C(=O)N[C@@H](CC(C)C)[C@@H](O)CC(=O)N[C@@H](CCCCN)C(=O)N[C@@H](CC(C)C)[C@@H](O)CC(=O)O` [Compound K, (N-Iva-Phe)-Nle-Sta-Lys-Sta] (Isovaleryl-F[Nle][Sta]K[Sta]-OH), the half-inhibitory concentration (IC50) is 20 nM at Sap3 of Candida albicans, < 5 nM at Sap1 of Candida albicans, ~50 nM on Sap6 of Candida albicans and ~5 nM against Sap5. For the same molecule, at Sap1 of Candida albicans (versus pepstatin A), the “effectiveness against Sap1 compared with pepstatin A” value was “more effective against Sap1 than pepstatin A itself”. Besides, on Sap5 (versus pepstatin A), the “effect on Sap 5” value is reported as “increased effect on Sap 5”.
`Cc1cccc(C)c1OCC(=O)N[C@@H](Cc1ccccc1)[C@@H](O)C[C@H](Cc1ccccc1)NC(=O)[C@H](C(C)C)N1CCCNC1=O` [Lopinavir, reference compound]: the IC50 at Sap3 of Candida albicans was > 312000 nM; at Sap1 of Candida albicans it was 312000 nM; against Sap6 of Candida albicans it was > 312000 nM; on Sap5, > 312000 nM. In the assay with Saps of Candida albicans, the “IC50 values, range” value is given as “in the range of micromole per litre”.
`CCCC[C@H](NC(=O)[C@@H](NC(=O)CC(C)C)C(C)C)C(=O)N[C@@H](CC(C)C)[C@@H](O)CC(=O)N[C@@H](C)C(=O)N[C@@H](CC(C)C)[C@@H](O)CC(=O)O` [P2(Nle)-pepstatin, (N-Iva-Val)-N/e-Sta-Ala-Sta] (Isovaleryl-V[Nle][Sta]A[Sta]-OH): the IC50 is < 5 nM at Sap3 of Candida albicans, ~10 nM against Sap1 of Candida albicans, ~15 nM against Sap6 of Candida albicans and 10 nM against Sap5.
As to `CC(C)CN(C[C@@H](O)[C@H](Cc1ccccc1)NC(=O)O[C@H]1CCOC1)S(=O)(=O)c1ccc(N)cc1` [Amprenavir, reference compound], the IC50 on Sap3 of Candida albicans is ~20000 nM; at Sap1 of Candida albicans it was ~5000 nM; against Sap6 of Candida albicans it was > 50000 nM; at Sap5, ~33000 nM. Besides, in the assay on Saps of Candida albicans, the “IC50 values, range” value is listed as “in the range of micromole per litre”.
